Measured values reported in PubChem BioAssay (NCI).
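1) Cells in 96-well plates. 2) Compound, 48 h, 5 concentrations. 3) Linear interpolation between surrounding doses. 4) Unreached endpoint = highest concentration. Here, GI50 denotes the concentration required for 50% inhibition of growth. TGI is the concentration that stops growth completely.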

What was measured:
Assay in all cases: inhibition of tumour cell growth, NCI panel, 48 h
786-0 renal = test system: 786-0 renal
A498 renal = test system: A498 renal
A549 NSCLC = test system: A549 NSCLC
ACHN renal = test system: ACHN renal
BT-549 breast = test system: BT-549 breast
CAKI-1 renal = test system: CAKI-1 renal
CCRF-CEM leukemia = test system: CCRF-CEM leukemia
COLO 205 colon = test system: COLO 205 colon
EKVX NSCLC = test system: EKVX NSCLC
HCC-2998 colon = test system: HCC-2998 colon
HCT-116 colon = test system: HCT-116 colon
HCT-15 colon = test system: HCT-15 colon
HL-60(TB) leukemia = test system: HL-60(TB) leukemia
HOP-62 NSCLC = test system: HOP-62 NSCLC
HOP-92 NSCLC = test system: HOP-92 NSCLC
HS 578T breast = test system: HS 578T breast
HT29 colon = test system: HT29 colon
IGROV1 ovarian = test system: IGROV1 ovarian
K-562 leukemia = test system: K-562 leukemia
KM12 colon = test system: KM12 colon
LOX IMVI melanoma = test system: LOX IMVI melanoma
M14 melanoma = test system: M14 melanoma
MALME-3M melanoma = test system: MALME-3M melanoma
MCF7 breast = test system: MCF7 breast
MDA-MB-231 breast = test system: MDA-MB-231 breast
MOLT-4 leukemia = test system: MOLT-4 leukemia
NCI-H23 lung = test system: NCI-H23 lung
NCI-H460 lung = test system: NCI-H460 lung
NCI-H522 lung = test system: NCI-H522 lung
NCI/ADR-RES ovarian = test system: NCI/ADR-RES ovarian
OVCAR-3 ovarian = test system: OVCAR-3 ovarian
OVCAR-4 ovarian = test system: OVCAR-4 ovarian
OVCAR-5 ovarian = test system: OVCAR-5 ovarian
OVCAR-8 ovarian = test system: OVCAR-8 ovarian
RPMI-8226 leukemia = test system: RPMI-8226 leukemia
RXF 393 renal = test system: RXF 393 renal
SF-268 CNS = test system: SF-268 CNS
SF-295 CNS = test system: SF-295 CNS
SK-MEL-2 melanoma = test system: SK-MEL-2 melanoma
SK-MEL-28 melanoma = test system: SK-MEL-28 melanoma
SK-MEL-5 melanoma = test system: SK-MEL-5 melanoma
SK-OV-3 ovarian = test system: SK-OV-3 ovarian
SN12C renal = test system: SN12C renal
SNB-19 CNS = test system: SNB-19 CNS
SNB-75 CNS = test system: SNB-75 CNS
SR leukemia = test system: SR leukemia
SW-620 colon = test system: SW-620 colon
T-47D breast = test system: T-47D breast
TK-10 renal = test system: TK-10 renal
U251 CNS = test system: U251 CNS
UACC-257 melanoma = test system: UACC-257 melanoma
UACC-62 melanoma = test system: UACC-62 melanoma
UO-31 renal = test system: UO-31 renal

For `COc1ccc(OC)c(CC(=O)c2ccc(O)c(C(=O)NCCc3ccc(F)cc3)c2)c1`, the TGI (786-0 renal) was 24.5 µM, the TGI (A498 renal) was 47 µM and the TGI (A549 NSCLC) was 37.6 µM. The TGI (ACHN renal) was 56.9 µM, the TGI (BT-549 breast) was 38.5 µM and the TGI (CAKI-1 renal) was 14.5 µM. For the same compound, the GI50 (CCRF-CEM leukemia) was 2.4 µM, the TGI (CCRF-CEM leukemia) was 6.65 µM and the TGI (COLO 205 colon) was 31.7 µM. The TGI (EKVX NSCLC) was 36.2 µM, the TGI (HCC-2998 colon) was 13.1 µM and the GI50 (HCT-116 colon) was 4.05 µM. It also gave a TGI (HCT-116 colon) of 19.9 µM, a TGI (HCT-15 colon) of 17.1 µM and a TGI (HL-60(TB) leukemia) of 7.29 µM. The TGI (HOP-62 NSCLC) was 5.63 µM, the TGI (HOP-92 NSCLC) was 41.4 µM and the TGI (HS 578T breast) was 8.69 µM. For the same compound, the TGI (HT29 colon) was 30.5 µM, the TGI (IGROV1 ovarian) was 18.1 µM and the TGI (K-562 leukemia) was > 100 µM. It also gave a TGI (KM12 colon) of 13.9 µM, a TGI (LOX IMVI melanoma) of 27 µM and a TGI (M14 melanoma) of 9.2 µM. For the same compound, the TGI (MALME-3M melanoma) was 6.9 µM, the TGI (MCF7 breast) was 24.6 µM and the TGI (MDA-MB-231 breast) was 20.4 µM. The TGI (MOLT-4 leukemia) was 17.4 µM, the TGI (NCI-H23 lung) was 14.2 µM and the TGI (NCI-H460 lung) was 34 µM. The TGI (NCI-H522 lung) was 11.2 µM, the TGI (NCI/ADR-RES ovarian) was 8.79 µM and the TGI (OVCAR-3 ovarian) was 3.17 µM. For the same compound, the TGI (OVCAR-4 ovarian) was 31 µM, the TGI (OVCAR-5 ovarian) was > 100 µM and the TGI (OVCAR-8 ovarian) was 21.8 µM. For the same compound, the TGI (RPMI-8226 leukemia) was 22.9 µM, the TGI (RXF 393 renal) was 2.9 µM and the TGI (SF-268 CNS) was 25 µM. The TGI (SF-295 CNS) was 10.1 µM, the TGI (SK-MEL-2 melanoma) was 12.3 µM and the TGI (SK-MEL-28 melanoma) was > 100 µM. For the same compound, the TGI (SK-MEL-5 melanoma) was 11.4 µM, the TGI (SK-OV-3 ovarian) was 9.96 µM and the GI50 (SN12C renal) was 4.26 µM. The TGI (SN12C renal) was 19.4 µM, the TGI (SNB-19 CNS) was 52.5 µM and the TGI (SNB-75 CNS) was 6.9 µM. For the same compound, the TGI (SR leukemia) was 10 µM, the TGI (SW-620 colon) was > 100 µM and the TGI (T-47D breast) was 8.44 µM. It also gave a TGI (TK-10 renal) of 45.8 µM, a TGI (U251 CNS) of 13.7 µM and a TGI (UACC-257 melanoma) of 44.8 µM. It also gave a GI50 (UACC-62 melanoma) of 4.01 µM, a TGI (UACC-62 melanoma) of 21.6 µM and a TGI (UO-31 renal) of 23.4 µM.
